The species named for series [1] is Homo sapiens. As to the kind of experiment: Inhibition of human erythrocyte 20S proteasome at 0.002 to 400 uM using Suc-LLVY-AMC substrate incubated for 1 hr by fluorescence assay.
Series [2] is filed under the species Homo sapiens. As to the kind of experiment: Inhibition of human erythrocyte 20S proteasome at 0.002 to 400 uM using compounds dissolved in 20% v/v DMSO in presence of Suc-LLVY-AMC substrate incubated for 1 hr by fluorescence assay.
The nature of series [3]: Stability in PBS buffer at pH 6.5 assessed as half life for compound hydrolysis by HPLC method. The class given is physicochemical.
Series [4] is described as follows: Stability in PBS buffer at pH 7.4 assessed as half life for compound hydrolysis by HPLC method. The format is physicochemical.
Series [5] can be described thus: Stability in PBS buffer at pH 8 assessed as half life for compound hydrolysis by HPLC method. The format is physicochemical.

Structures are written as SMILES. Active and inactive are the calls of the source.

Turning to `CC(C)C[C@@H](CNC(=O)[C@H](Cc1ccccc1)NC(=O)[C@H](CC(C)C)NC(=O)[C@H](CCc1ccccc1)NC(=O)CN1CCOCC1)S(=O)(=O)F`, the inhibition entry in the series filed under Homo sapiens [1] and in the series filed under Homo sapiens [2] was “inactive” throughout.
The term half-life denotes the time needed for the level to fall by half in the phase considered. For `CC(C)C[C@@H](CS(=O)(=O)F)NC(=O)[C@H](CC(C)C)NC(=O)[C@H](CC(C)C)NC(=O)OCc1ccccc1`, the half-life in series [3], in series [4] and in series [5] was 10 to 12 h throughout. In the series filed under Homo sapiens [1], the inhibition result is “Active”.
As to `CC(C)C[C@H](NC(=O)OCc1ccccc1)C(=O)N[C@@H](CC(C)C)C(=O)NC[C@H](Cc1ccccc1)S(=O)(=O)F`, the inhibition result in the series filed under Homo sapiens [1] and in the series filed under Homo sapiens [2] was “inactive” in each case.
On to `CC(C)C[C@@H](CNC(=O)[C@H](CC(C)C)NC(=O)[C@H](CC(C)C)NC(=O)OCc1ccccc1)S(=O)(=O)F`, for which the half-life in series [3], in series [4] and in series [5] was 5 to 7 h each time. Also, the inhibition entry in the series filed under Homo sapiens [1] and in the series filed under Homo sapiens [2] was “inactive” each time.
As to `CC(C)C[C@@H](CNC(=O)[C@H](CC(C)C)NC(=O)[C@H](CC(C)C)NC(=O)[C@H](CC(C)C)NC(=O)OCc1ccccc1)S(=O)(=O)F`, the half-life in series [3], in series [4] and in series [5] was 5 to 7 h in each case. The inhibition result in the series listed under Homo sapiens [1] and in the series filed under Homo sapiens [2] was “inactive” in each case.
For the molecule `CC(C)C[C@@H](CS(=O)(=O)F)NC(=O)[C@H](CC(C)C)NC(=O)[C@H](CC(C)C)NC(=O)[C@H](CC(C)C)NC(=O)OCc1ccccc1`, the half-life in series [3], in series [4] and in series [5] was 10 to 12 h throughout. For the same molecule, the inhibition entry in the series filed under Homo sapiens [1] was “Active”.
As to `CC(C)C[C@H](NC(=O)OCc1ccccc1)C(=O)N[C@@H](CC(C)C)C(=O)N[C@@H](CC(C)C)C(=O)NC[C@H](Cc1ccccc1)S(=O)(=O)F`, the inhibition entry in the series filed under Homo sapiens [1] and in the series listed under Homo sapiens [2] was “inactive” throughout.
In the case of `CC(C)C[C@H](NC(=O)[C@H](CCc1ccccc1)NC(=O)CN1CCOCC1)C(=O)N[C@@H](Cc1ccccc1)C(=O)NC[C@H](Cc1ccccc1)S(=O)(=O)F`, the inhibition result in the series filed under Homo sapiens [1] and in the series filed under Homo sapiens [2] was “inactive” throughout.

Values taken from ChEMBL document CHEMBL4043117, “Potential peptidic proteasome inhibitors by incorporation of an electrophilic trap based on amino acid derived α-substituted sulfonyl fluorides” (Bioorg Med Chem, 2017).
